# Read-outs that look alike come from different tables or passages of the source.
# Tests used:
# A. flavus ATCC 204304 = assay: Broth microdilution antifungal susceptibility, NCCLS M38-A; type: cell-based, Aspergillus flavus; details: minimal concentration inhibiting >95% growth; average of at least two assays (except I-l and I-x)
# A. fumigatus ATCC 204305 = assay: as above; type: cell-based, Aspergillus fumigatus; details: minimal concentration inhibiting >95% growth; average of at least two assays (except I-l and I-x)
# Blastomyces dermatitidis = assay: as above; type: cell-based
# Histoplasma capsulatum = type: cell-based
# [1] = test system: Trichophyton mentagrophytes; assay: Dermatophyte broth microdilution, NCCLS M38-A; type: cell-based
# Microsporum gypseum = assay: Dermatophyte broth microdilution, NCCLS M38-A; type: cell-based
# [2] = test system: Trichophyton interdigitale; assay: Dermatophyte broth microdilution, NCCLS M38-A; type: cell-based
# Epidermophyton floccosum = assay: Dermatophyte broth microdilution, NCCLS M38-A; type: cell-based
# Trichophyton rubrum = assay: Dermatophyte broth microdilution, NCCLS M38-A; type: cell-based
# Microsporum canis = assay: Dermatophyte broth microdilution, NCCLS M38-A; type: cell-based
# C. posadasii = assay: microbe, parasite or virus in culture; type: cell-based, Coccidioides posadasii; details: for MIC: Coccidioides posadasii
# C. immitis = assay: microbe, parasite or virus in culture; type: cell-based, Coccidioides immitis; details: for MIC: Coccidioides immitis
# Cryptococcus neoformans = assay: Broth microdilution antifungal susceptibility, NCCLS M38-A; details: 50% growth inhibition, range = minimum and maximum of multiple assays; for MIC C. neoformans 97-14: strain 97-14; for MIC C. neoformans 11239: strain 11239; for MIC C. neoformans 11240: strain 11240
Structure (SMILES),MIC0 A. flavus ATCC 204304 (A. flavus ATCC 204304) [µg/mL],MIC0 A. fumigatus ATCC 204305 (A. fumigatus ATCC 204305) [µg/mL],MIC B. dermatitidis Gu (Blastomyces dermatitidis) [µg/mL],MIC B. dermatitidis Kr (Blastomyces dermatitidis) [µg/mL],MIC B. dermatitidis V (Blastomyces dermatitidis) [µg/mL],MIC H. capsulatum G217B (Histoplasma capsulatum) [µg/mL],MIC H. capsulatum GS20 (Histoplasma capsulatum) [µg/mL],MIC0 Tm [1] [µg/mL],MIC0 Mg (Microsporum gypseum) [µg/mL],MIC0 Ti [2] [µg/mL],MIC0 Ef (Epidermophyton floccosum) [µg/mL],MIC0 Tr (Trichophyton rubrum) [µg/mL],MIC0 Mc (Microsporum canis) [µg/mL],MIC C. neoformans 97-14 (Cryptococcus neoformans) [µg/mL],MIC C. neoformans 11239 (Cryptococcus neoformans) [µg/mL],MIC C. neoformans 11240 (Cryptococcus neoformans) [µg/mL],other results
"CC[C@H]1O[C@@H](/C(C)=C/[C@H](C)/C=C/[C@H]2[C@@H](C)[C@@H]2/C=C/[C@@H]2O[C@H](CC(=O)O)C[C@H](NC3CCCC3)[C@H]2O)CC=C1C [I-d, (5S,6R)-5-(cyclopentylamino)-6-hydroxypolyangioic acid]",8.0,8.0,>12.5,>12.5,>12.5,<0.19,<0.19,8,2.51,2.51,4,3.17,2.82,,,,
OC(Cn1cncn1)(Cn1cncn1)c1ccc(F)cc1F [Fluconazole],,,,,,,,,,,,,,,,,MIC (C. posadasii; read-out: MIC C. posadasii C735): 16 µg/mL; MIC (C. posadasii; read-out: MIC C. posadasii RMSCC 2127): 16 µg/mL; MIC (C. posadasii; read-out: MIC C. posadasii Silveria): 4 µg/mL; MIC (C. immitis; read-out: MIC C. immitis RMS 2281): 16 µg/mL; MIC (C. immitis; read-out: MIC C. immitis RS): 16 µg/mL; MIC (C. immitis; read-out: MIC C. immitis S46): 16 µg/mL
"CCCCN(C)[C@H]1C[C@@H](CC(=O)O)O[C@@H](/C=C/[C@H]2[C@H](C)[C@@H]2/C=C/[C@@H](C)/C=C(\C)[C@H]2CC=C(C)[C@@H](CC)O2)[C@@H]1O [I-u, (5S,6R)-5-(N-butyl-methylamino)-6-hydroxypolyangioic acid]",4.5,4.25,>12.5,>12.5,>12.5,<0.19,<0.19,11.31,4,3.17,2.82,3.17,5.65,1,2,2,
"CCCN(C)[C@H]1C[C@@H](CC(=O)O)O[C@@H](/C=C/[C@H]2[C@H](C)[C@@H]2/C=C/[C@@H](C)/C=C(\C)[C@H]2CC=C(C)[C@@H](CC)O2)[C@@H]1O [I-t, (5S,6R)-5-(N-propyl-methylamino)-6-hydroxypolyangioic acid]",2.25,2.25,>12.5,>12.5,>12.5,<0.19,<0.19,11.31,2,1.25,1.41,1.58,2.82,0.5,1,0.5,
"CC[C@H]1O[C@@H](/C(C)=C/[C@H](C)/C=C/[C@H]2[C@@H](C)[C@@H]2/C=C/[C@@H]2O[C@H](CC(=O)O)C[C@H](N(C)CC)[C@H]2O)CC=C1C [I-a, (5S,6R)-5-(N-ethyl-methylamino)-6-hydroxypolyangioic acid]",2.0,2.0,,,,,,5.65,2.51,2,4,2,1.41,1,2,2,
"CCOC(=O)O[C@H]1[C@H](/C=C/[C@H]2[C@H](C)[C@@H]2/C=C/[C@@H](C)/C=C(\C)[C@H]2CC=C(C)[C@@H](CC)O2)O[C@H](CC(N)=O)C[C@@H]1N(C)C [I-ii, (5S,6R)-5-(dimethylamino)-6-ethoxycarbonyloxy-polyangiamide]",1,1,,,,,,1.41,1,1.58,1,1.58,0.5,0.5 to 1,0.25,0.25 to 0.5,MIC C. posadasii C735 (C. posadasii): 0.5 µg/mL; MIC C. posadasii RMSCC 2127 (C. posadasii): 0.25 µg/mL; MIC C. posadasii Silveria (C. posadasii): 0.5 µg/mL; MIC C. immitis RMS 2281 (C. immitis): 0.125 µg/mL; MIC C. immitis RS (C. immitis): 0.25 µg/mL; MIC C. immitis S46 (C. immitis): 0.25 µg/mL

# Source: patent US20070015823A1, “Ambruticin VS compounds” (priority 2004, published 2007)
